Source: PMC9851200, “Multiparameter phenotypic screening for endogenous TFEB and TFE3 translocation identifies novel chemical series modulating lysosome function” (Autophagy, 2022)
Like-named read-outs stand apart in the source and are kept apart here.

How the values were obtained:
endogenous TFE3 = test: TFE3 nuclear translocation, immunocytochemistry high-content imaging; assay type: cell-based
SH-SY5Y cells [1] = test: AK (adenylate kinase) release ToxiLight cytotoxicity assay; also: reference of the scale not given here
SH-SY5Y cells [2] = tested on: SH-SY5Y cells; also: reference of the scale not given here
SH-SY5Y cells [3] = test: Nuclear count from microscopy images (cellular growth and toxicity); also: reference of the scale not given here
SH-SY5Y cells [4] = test: Chemotype enrichment analysis of PKIS2 primary screen hit categories; conditions: PKIS2 primary screening, hit category
endogenous TFEB = test: TFEB nuclear translocation, immunocytochemistry high-content imaging; assay type: cell-based
[5] = PKIS2 primary screening, DQ Red BSA intensity
[6] = PKIS2 primary screening, DQ Red BSA spot count

SMILES	TFE3 % (endogenous TFE3; PKIS2 primary screening) [%]	AK (SH-SY5Y cells [1]; PKIS2 primary screening)	DQ Intensity (SH-SY5Y cells [2]; [5])	DQ Spot (SH-SY5Y cells [2]; [6])	Nuclear Count (SH-SY5Y cells [3]; PKIS2 primary screening)	Outcome (SH-SY5Y cells [4])	TFEB % (endogenous TFEB; PKIS2 primary screening) [%]	DQ Intensity (SH-SY5Y cells [2]; PKIS2 primary screening)	DQ Spot (SH-SY5Y cells [2]; PKIS2 primary screening)	TFE3 % (endogenous TFE3; PKIS2 primary screen) [%]	AK (SH-SY5Y cells [1]; PKIS2 primary screen)	DQ Intensity (SH-SY5Y cells [2]; PKIS2 primary screen, DQ Red BSA intensity)	DQ Spot (SH-SY5Y cells [2]; PKIS2 primary screen, DQ Red BSA spot count)	Nuclear Count (SH-SY5Y cells [3]; PKIS2 primary screen)	TFEB % (endogenous TFEB; PKIS2 primary screen) [%]
CS(=O)(=O)CCNCc1ccc(-c2ccc3ncnc(Nc4ccc(OCc5ccccc5)c(Cl)c4)c3c2)o1.Cl [UNC10112604A]	24.66	78.47	133.51	89.48	96.24	TFE3	8.74								
Cl.Nc1ncnc2occ(-c3ccc(NC(=O)Nc4cc(C(F)(F)F)ccc4F)cc3)c12 [UNC10112792A]	17.19	84.72	73.11	78.83	92.62	LYSO TOXIC	5.26								
C=CC(=O)Nc1cc2c(Nc3ccc(F)c(Cl)c3)ncnc2cc1OCCCN1CCOCC1 [UNC10126563B]	16.19	149.52	67.23	74.22	114.57	TOXIC	7.79								
Cc1ccn2nc(-c3ccc(F)cc3)c(-c3ccncc3)c2c1.Cl [UNC10224989A]	6.03	121.47	96.51	106.96	114.75	TFEB	29.24								
CS(=O)(=O)c1ccc(-c2nc3n(c2-c2ccncc2)CCC3)cc1 [UNC10224995A]	13.24	200.60	130.38	113.84	122.53	TOXIC	6.71								
Cl.c1ccc(-c2ccc3c(Nc4ccc5[nH]ncc5c4)ccnc3c2)nc1 [UNC10225007A]	16.03	108.57	77.57	57.65	105.78	LYSO TOXIC	7.66								
Nc1ncc(-c2ccc3nccc(-c4ccncc4)c3c2)cc1S(=O)(=O)N1CCOCC1 [UNC10225011A]	1.48	92.69	150.72	94.12	96.85	DQ Only	0.58								
COc1cc2nccc(Nc3ccc(NC(=O)c4ccc(C)cc4)c(O)c3)c2cc1OC.Cl [UNC10225013A]	46.99	100.53	86.65	65.59	63.58	LYSO TOXIC	33.18								
CCn1c(-c2ccoc2)nc2cnccc21 [UNC10225474A]	9.12	125.64			101.97		2.97	148.88	113.44						
COc1ccc(NC(=O)c2ccc(-c3cc(-c4nnc(C)o4)ccc3C)cc2)cc1 [UNC10225475A]	13.72	97.70			99.11		3.99	95.33	98.26						
Cn1cc(-c2ccc3c(c2)CCN3C(=O)Cc2cc(F)cc(C(F)(F)F)c2)c2c(N)ncnc21 [UNC10225478A]	18.35	72.42			95.63		5.80	103.20	103.08						
CC(=O)N1CCN(c2ccc(Nc3nccc(-c4sc(C(C)C)nc4-c4cccc(NS(=O)(=O)c5cccc(Cl)c5)c4)n3)cn2)CC1 [UNC10225481A]	9.55	73.54			128.41		3.72	100.90	115.22						
Cl.Oc1ccc(-c2nc(-c3ccccc3)[nH]c2-c2ccncc2)cc1 [UNC10225482A]	9.08	90.33	99.60	108.10	92.35		7.63								
CSc1ccc(-c2nc3n(c2-c2ccncc2)CCC3)cc1 [UNC10225486A]	13.99	80.57	119.41	102.53	91.88		5.52								
Cl.c1ccc(Cn2ccc3cc(Nc4ncnc5ccccc45)ccc32)cc1 [UNC10225488A]	8.10	113.68	101.44	98.20	128.88		3.41								
Cc1ccc(CC(=O)N2CCc3cc(-c4cn(C)c5ncnc(N)c45)ccc32)cc1 [UNC10225490A]	14.69	123.53			101.02		5.80	104.55	111.62						
Cc1ccccc1COc1cc(-n2cnc3cc(Cl)ccc32)sc1C(N)=O [UNC10225491A]	6.85	190.42			71.39		9.14	119.27	99.65						

SMILES	TFE3 % (endogenous TFE3; PKIS2 primary screening) [%]	AK (SH-SY5Y cells [1]; PKIS2 primary screening)	DQ Intensity (SH-SY5Y cells [2]; [5])	DQ Spot (SH-SY5Y cells [2]; [6])	Nuclear Count (SH-SY5Y cells [3]; PKIS2 primary screening)	Outcome (SH-SY5Y cells [4])	TFEB % (endogenous TFEB; PKIS2 primary screening) [%]	DQ Intensity (SH-SY5Y cells [2]; PKIS2 primary screening)	DQ Spot (SH-SY5Y cells [2]; PKIS2 primary screening)	TFE3 % (endogenous TFE3; PKIS2 primary screen) [%]	AK (SH-SY5Y cells [1]; PKIS2 primary screen)	DQ Intensity (SH-SY5Y cells [2]; PKIS2 primary screen, DQ Red BSA intensity)	DQ Spot (SH-SY5Y cells [2]; PKIS2 primary screen, DQ Red BSA spot count)	Nuclear Count (SH-SY5Y cells [3]; PKIS2 primary screen)	TFEB % (endogenous TFEB; PKIS2 primary screen) [%]
Cc1nccc(-c2c(-c3ccc(F)cc3)ncn2CCCN2CCOCC2)n1.Cl [UNC10225493A]	13.96	100.35			97.00		4.71	90.01	96.19						
Nc1nccc2scc(-c3ccc4c(c3)CCN4C(=O)Cc3cc(F)ccc3F)c12 [UNC10225494A]	17.46	74.58	123.47	108.12	97.20		3.18								
COc1cc2ncn(-c3cc(OCC4CCCCC4)c(C(N)=O)s3)c2cc1OC [UNC10225496A]	7.72	73.76			113.87		3.76	104.41	104.84						
Cn1cncc1-c1ccc2ncnc(Nc3ccc(OCc4ccccc4)cc3)c2c1 [UNC10225497A]	13.09	50.65	100.86	83.02	104.34		8.56								
Cc1cccc(-c2cc(-c3c[nH]nc3-c3ccccn3)ccn2)c1 [UNC10225499A]	5.64	88.92	88.33	90.33	133.11		5.43								
Nc1ncc(-c2cn[nH]c2)c2scc(-c3ccc4c(c3)CCN4C(=O)Cc3ccccc3)c12 [UNC10225500A]	18.45	74.47	108.00	96.83	110.94		8.67								
Cc1nnc(-c2ccc(C)c(-c3ccc(C(=O)O)cc3)c2)o1 [UNC10225501A]	10.21	95.30			117.94		7.30	75.58	83.30						
O=C(NCc1cccs1)c1cc(C(=O)c2c(Cl)cccc2Cl)c[nH]1 [UNC10225502A]										7.89	136.34	112.22	106.20	105.30	6.92
NCCC(NC(=O)c1cc(Br)c(-c2ccnc3[nH]ccc23)s1)c1ccccc1.O=C(O)C(F)(F)F.O=C(O)C(F)(F)F (centres unmarked) [UNC10225503A]	15.14	81.01	126.00	127.76	121.43		3.19								
CN(C)c1ncnc2nc[nH]c12 [UNC10243858A]	16.40	79.19			91.65		5.99	152.14	119.94						
[2H]C([2H])(c1cccc(C(F)(F)F)c1C)n1ccn2c(=O)nc(N3CCOCC3)cc12 [UNC10243860A]	12.75	87.88			110.69		4.33	104.50	118.55						
Cc1c(Cn2ccn3c(=O)cc(N4CCOCC4)nc23)cccc1C(F)(F)F [UNC10243861A]	6.09	106.43			146.89		1.67	74.52	79.14						
CNc1ncnc2[nH]ncc12 [UNC10243862A]	11.00	111.70			108.49		5.21	93.16	103.80						
Nc1ncnc2[nH]c(-c3ccccc3)nc12 [UNC10243863A]	10.89	85.62			66.20		9.65	154.91	119.26						
Cc1occc1-c1ncc(OC[C@@H](N)Cc2c[nH]c3ccccc23)cc1-c1ccc2[nH]nc(C)c2c1.O=C(O)C(F)(F)F [UNC10243880A]	39.74	148.86			69.84		19.77	77.42	58.66						
CSc1nn2c(=O)cc(N3CCOCC3)nc2n1Cc1cccc(C(F)(F)F)c1C [UNC10243881A]	9.67	100.35			93.06		6.63	80.81	106.13						
